# Like-named read-outs stand apart in the source and are kept apart here.
# Key:
# Type in all cases: biochemical
# [1] = biological target: T1, TACE (Homo sapiens, UniProt P78536); assay: TACE inhibition experiment (in vitro)
# T1 construct: made in house; host or cells: mammalian cells or insect cells
# Protocol: TACE inhibition experiments were conducted using TACE obtained as above as an enzyme and by measuring TACE activity in the presence or absence of a test substance using Nma (N-metylanthranilic acid)-[sequence]Dnp(dinitrophenyl)-D-Arg-NH2 being a fluorescent synthetic substrate which contains the sequence of cleavage site of membrane-bound TNF by TACE, as a substrate.
# More specifically, 14 units of an enzyme solution (1 unit is defined as the amount of enzyme which degrades 1 pmol of the substrate per minute at 25° C.) which was prepared in 90 μL of assay buffer A (50 mM Tris-HCl buffer (pH 7.5) containing 200 mM sodium chloride, 5 mM calcium chloride, 10 μM zinc sulfate, 0.004% sodium azide and 2 mg/mL bovine serum albumin) and 90 μL of 20 μM fluorescent synthetic substrate prepared in assay buffer B (50 mM Tris-HCl buffer (pH 7.5) containing 200 mM sodium chloride, 5 mM calcium chloride, 10 μM zinc sulfate, 0.004% sodium azide and 0.05% PLURONIC F-68) are mixed and reacted for 2 hours at 37° C.
# [2] = biological target: T2, Human MMP9 (Homo sapiens, UniProt P14780); assay: MMP9 inhibition experiment; conditions: read-out: IC50 value MMP-9
# T2 construct: purchased Calbiochem 444231
# Protocol: This enzyme solution in amount of 1 μL was diluted to 90 μL with the assay buffer A, which was added to 90 μL of 20 μM fluorescent substrate (Dnp-Pro-Cha-Gly-Cys(Me)-His-Ala-Lys(Nma)-NH2) prepared in the assay buffer B, followed by reaction for 4 hours at 37° C.
# [3] = biological target: T3, Human MMP14 (Homo sapiens, UniProt P50281); assay: MMP14 inhibition experiment; conditions: concentration required for 50% inhibition of enzyme activity; read-out: IC50 value MMP-14
# T3 construct: purchased Biogenesis or Calbiochem 5980-1461 or 475935
# Protocol: (§1) MMP inhibition experiment may be carried out using a fluorescent synthetic substrate according to, for example, the methods of Bickett et al. (D. Mark Bickett et al., Anal. Biochem., 1993, 212, 58-64) and Nagase et al. (H. Nagase et al., J. Biol. Chem., 1994, 269, 20952-20957). The methods of inhibition experiments carried out for various MMPs are described below.
# Human MMP14 (Biogenesis #5980-1461 or Calbiochem #475935) in amount of 90 μL (4 ng) prepared in the assay buffer A was added to 90 μL of 20 μM fluorescent substrate (Dnp-Pro-Cha-Gly-Cys(Me)-His-Ala-Lys(Nma)-NH2) prepared in the assay buffer B, followed by reaction for 5 hours at 37° C.
# [4] = biological target: T4, Human MMP17 (Homo sapiens, UniProt Q9ULZ9); assay: MMP17 inhibition test; conditions: concentration required for 50% inhibition of enzyme activity; read-out: IC50 value MMP-17
# T4 construct: purchased Calbiochem 475940
# T4 sequence (Q9ULZ9 126-300 limits assumed): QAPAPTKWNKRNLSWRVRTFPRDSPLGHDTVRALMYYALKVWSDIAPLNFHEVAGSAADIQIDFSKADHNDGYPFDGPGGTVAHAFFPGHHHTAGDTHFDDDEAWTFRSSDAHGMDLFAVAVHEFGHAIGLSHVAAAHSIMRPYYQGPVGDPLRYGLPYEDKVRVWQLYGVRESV
# [5] = biological target: T5, Human MMP3 (Homo sapiens, UniProt P08254); assay: MMP3 inhibition experiment; conditions: concentration required for 50% inhibition of enzyme activity; read-out: IC50 value MMP-3
# T5 construct: purchased Calbiochem 444217
# T5 sequence (P08254 100-272 limits assumed): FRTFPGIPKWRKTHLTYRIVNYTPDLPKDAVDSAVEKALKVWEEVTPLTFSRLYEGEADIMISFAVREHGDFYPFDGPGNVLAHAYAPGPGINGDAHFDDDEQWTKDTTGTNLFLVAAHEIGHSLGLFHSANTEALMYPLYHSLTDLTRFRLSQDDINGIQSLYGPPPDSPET
# Protocol: as §1
# Human MMP3 (Calbiochem #444217) in 90 μL (5 ng) prepared in the assay buffer A was added to 90 μL of 20 μM fluorescent substrate NFF-3(MOCAc-Arg-Pro-Lys-Pro-Val-Glu-Nva-Trp-Arg-Lys(Dnp)-NH2, Peptide Institute, Inc., #3168-v) prepared in the assay buffer B, followed by reaction for 5 hours at 37° C.
# [6] = biological target: T6, Human MMP13 (Homo sapiens, UniProt P45452); assay: MMP13 inhibition experiment
# T6 construct: purchased Chemicon CC068
# Protocol: Human MMP13 (Chemicon #CC068) in amount of 90 μL (200 ng) was activated by mixing with 10 μL of 10 mM APMA, followed by reaction for 1 hour at 37° C. This enzyme solution in amount of 0.6 μL was diluted to 90 μL with the assay buffer A, which was added to 90 μL of 20 μM fluorescent substrate (Dnp-Pro-Cha-Gly-Cys(Me)-His-Ala-Lys(Nma)-NH2) prepared in the assay buffer B, followed by reaction for 4 hours at 37° C.
# [7] = biological target: T7, Human MMP1 (Homo sapiens, UniProt P03956); assay: MMP1 inhibition experiment; conditions: read-out: IC50 value MMP-1
# T7 construct: purchased Calbiochem 444208
# T7 sequence (P03956 100-469): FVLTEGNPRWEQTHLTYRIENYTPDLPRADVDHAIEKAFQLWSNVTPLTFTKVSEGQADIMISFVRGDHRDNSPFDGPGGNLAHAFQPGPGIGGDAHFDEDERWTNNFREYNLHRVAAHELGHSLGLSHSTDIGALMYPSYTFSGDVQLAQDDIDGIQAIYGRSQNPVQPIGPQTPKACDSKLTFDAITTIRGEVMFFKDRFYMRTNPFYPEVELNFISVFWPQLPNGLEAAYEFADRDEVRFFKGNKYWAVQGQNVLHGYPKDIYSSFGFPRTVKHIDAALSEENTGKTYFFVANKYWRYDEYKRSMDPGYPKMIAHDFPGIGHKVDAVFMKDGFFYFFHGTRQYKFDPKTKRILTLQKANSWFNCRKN
# Protocol: This enzyme solution in amount of 10 μL was diluted to 90 μL with the assay buffer A, which was added to 90 μL of 20 μM fluorescent substrate (Dnp-Pro-Cha(β-cyclohexylalanyl)-Gly-Cys(Me)-His-Ala-Lys(Nma)-NH2) prepared in the assay buffer B, followed by reaction for 5 hours at 37° C.
# [8] = concentration required for 50% inhibition of enzyme activity
# [9] = concentration required for 50% inhibition of enzyme activity, read-out: IC50 value MMP-13
# T1 sequence (P78536 215-824): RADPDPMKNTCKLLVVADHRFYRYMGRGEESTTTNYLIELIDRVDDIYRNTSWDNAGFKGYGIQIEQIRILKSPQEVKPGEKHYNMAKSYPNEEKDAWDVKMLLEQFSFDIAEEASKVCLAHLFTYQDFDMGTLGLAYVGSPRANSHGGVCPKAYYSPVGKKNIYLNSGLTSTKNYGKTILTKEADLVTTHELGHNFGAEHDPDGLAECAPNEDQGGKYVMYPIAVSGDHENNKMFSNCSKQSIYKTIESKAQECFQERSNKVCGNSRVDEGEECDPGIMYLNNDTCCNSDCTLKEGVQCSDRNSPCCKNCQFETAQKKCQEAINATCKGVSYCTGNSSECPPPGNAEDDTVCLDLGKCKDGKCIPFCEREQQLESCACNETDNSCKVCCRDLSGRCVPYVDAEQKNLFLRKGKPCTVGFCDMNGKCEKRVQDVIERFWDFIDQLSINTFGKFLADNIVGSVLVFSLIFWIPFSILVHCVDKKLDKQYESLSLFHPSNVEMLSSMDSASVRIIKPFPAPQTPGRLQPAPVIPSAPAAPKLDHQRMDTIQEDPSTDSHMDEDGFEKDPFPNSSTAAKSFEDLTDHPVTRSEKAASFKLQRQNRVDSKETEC
# T2 sequence (P14780 107-707 limits assumed): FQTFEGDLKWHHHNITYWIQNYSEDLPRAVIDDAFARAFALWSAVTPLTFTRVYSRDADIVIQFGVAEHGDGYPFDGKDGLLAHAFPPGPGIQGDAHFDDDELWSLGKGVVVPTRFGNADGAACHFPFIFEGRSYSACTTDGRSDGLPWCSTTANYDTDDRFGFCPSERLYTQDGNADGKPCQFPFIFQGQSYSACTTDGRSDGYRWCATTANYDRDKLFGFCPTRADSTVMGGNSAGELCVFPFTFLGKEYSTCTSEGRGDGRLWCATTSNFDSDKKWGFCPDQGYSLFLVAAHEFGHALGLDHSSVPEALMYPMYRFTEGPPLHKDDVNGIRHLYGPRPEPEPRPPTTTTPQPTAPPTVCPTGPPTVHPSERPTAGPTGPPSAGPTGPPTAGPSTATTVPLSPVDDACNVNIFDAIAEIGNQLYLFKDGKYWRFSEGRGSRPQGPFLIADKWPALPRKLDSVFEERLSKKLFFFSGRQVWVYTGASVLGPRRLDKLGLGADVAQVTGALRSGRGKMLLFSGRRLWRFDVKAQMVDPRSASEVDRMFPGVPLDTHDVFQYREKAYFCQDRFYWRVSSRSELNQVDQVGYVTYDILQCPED
smiles,measurement,setting,value
CCC(CC)C(=O)N1CC/C(=C\C(CS(=O)(=O)c2ccc(OCc3cc(C)nc4ccccc34)cc2)N(O)C=O)C(C)(C)C1 (centres unmarked) [Example I-141],IC50,[1],3.3 nM
CCN1CCC(C(CS(=O)(=O)c2ccc(OCc3cc(C)nc4ccccc34)cc2)N(O)C=O)CC1 (centres unmarked) [Example I-156],IC50,[1],33 nM
Cc1cc(COc2ccc(S(=O)(=O)CC(/C=C3\CCN(CC(C)C)CC3(C)C)N(O)C=O)cc2)c2ccccc2n1 (centres unmarked) [Example I-142],IC50,[1],18 nM
COCc1cc(COc2ccc(S(=O)(=O)CC(CC3CCC(=O)CC3)N(O)C=O)cc2)cc(C)n1 (centres unmarked) [Example I-123],IC50,[1],290 nM
Cc1cc(COc2ccc(S(=O)(=O)CC(C=C3CCCN(S(C)(=O)=O)CC3)N(O)C=O)cc2)c2ccccc2n1 (centres unmarked) [Example I-138],IC50,[1],2.8 nM
"C[C@@H]1O[C@@H](CO)CN(S(=O)(=O)c2ccc(OCc3ccc(F)cc3)cc2)[C@H]1C(=O)NO [compound 2, reference compound]",IC50,[2]; [8],20 nM
same,IC50,[1]; [8],5 nM
same,IC50,[3],100 nM
same,IC50,[4],21 nM
same,IC50,[5],40 nM
same,IC50,[6]; [9],4 nM
same,IC50,[7]; [8],3000 nM
Cc1cc(COc2ccc(S(=O)(=O)CC(CCC3=CCCC(O)C3)N(O)C=O)cc2)c2ccccc2n1 (centres unmarked) [Example I-146],IC50,[1],9.4 nM
Cc1cc(COc2ccc(S(=O)(=O)CC(C=C3CCCN(CC(C)C)CC3)N(O)C=O)cc2)c2ccccc2n1 (centres unmarked) [Example I-140],IC50,[1],8.2 nM
Cc1cc(C)cc(COc2ccc(S(=O)(=O)CC(CC3CCC4(CC3)OCCO4)N(O)C=O)cc2)c1 (centres unmarked) [Example I-90],IC50,[1],2100 nM
Cc1cc(COc2ccc(S(=O)(=O)CC(N(O)C=O)C3(C)CCN(C(=O)OC(C)(C)C)CC3)cc2)c2ccccc2n1 (centres unmarked) [Example I-161],IC50,[1],44 nM
"C=C1CCC(C(CS(=O)(=O)c2ccc(OCc3cc(C)cc(C)c3)cc2)N(O)C=O)CC1 (centres unmarked) [Example I-5, N-[2-{4-(3,5-Dimethylbenzyloxy)benzenesulfonyl}-1-(4-methylenecyclohexyl)ethyl]-N-hydroxyformamide]",IC50,[2],22000 nM
same,IC50,[1],430 nM
same,IC50,[3],25000 nM
same,IC50,[4],5000 nM
same,IC50,[5],20000 nM
same,IC50,[6]; [9],10000 nM
same,IC50,[7],33000 nM
Cc1cc(COc2ccc(S(=O)(=O)CC(CCC3(C)CCOCC3)N(O)C=O)cc2)c2ccccc2n1 (centres unmarked) [Example I-144],IC50,[1],7.2 nM
"CC[C@H](C)[C@H](NC(=O)[C@H](CC(C)C)[C@H](C(C)C)N(O)C=O)C(=O)Nc1ccccn1 [compound 3, (2R,3S)-3-(formylhydroxyamino)-2-(2-methyl-1-propyl)-4-methylpentanoic acid [(1S,2S)-2-methyl-1-(pyridin-2-ylcarbamoyl)-1-butyl]amide, reference compound]",IC50,[2],30 nM
same,IC50,[1],35 nM
same,IC50,[3],70 nM
same,IC50,[4],13 nM
same,IC50,[5],30 nM
same,IC50,"[6]; IC50 value MMP-13, concentration required for 50% inhibition of enzyme activity",10 nM
same,IC50,[7],45 nM
CCN1CCCC(C(CS(=O)(=O)c2ccc(OCc3cc(C)nc4ccccc34)cc2)N(O)C=O)C1 (centres unmarked) [Example I-153],IC50,[1],33 nM
O=CN(O)C(CC1CCC(=NO)CC1)CS(=O)(=O)c1ccc(OCc2ccc3ccccc3n2)cc1 (centres unmarked) [Example I-88],IC50,[1],760 nM
Cc1cc(COc2ccc(S(=O)(=O)CC(CC3=CCN(C(=O)OC(C)(C)C)CC3(C)C)N(O)C=O)cc2)c2ccccc2n1 (centres unmarked) [Example I-152],IC50,[1],13 nM
CCC(CC)C(=O)N1CCC(CC(CS(=O)(=O)c2ccc(OCc3cc(C)nc4ccc(C)cc34)cc2)N(O)C=O)CC1 (centres unmarked) [Example I-175],IC50,[1],11 nM
COc1ccc(CCC(CS(=O)(=O)c2ccc(OCc3cc(C)nc4ccccc34)cc2)N(O)C=O)c(C)c1C (centres unmarked) [Example I-145],IC50,[1],210 nM
CCC(CC)CN1CCCC(C(CS(=O)(=O)c2ccc(OCc3cc(C)nc4ccccc34)cc2)N(O)C=O)C1 (centres unmarked) [Example I-160],IC50,[1],50 nM
COCc1cc(COc2ccc(S(=O)(=O)CC(CC3CCC4(CC3)OCCO4)N(O)C=O)cc2)cc(C)n1 (centres unmarked) [Example I-121],IC50,[1],360 nM
Cc1cc(COc2ccc(S(=O)(=O)CC(CC3CCCN(C(=O)OC(C)(C)C)C3)N(O)C=O)cc2)c2ccccc2n1 (centres unmarked) [Example I-157],IC50,[1],13 nM
Cc1cc(COc2ccc(S(=O)(=O)CC(CCc3ccccc3C)N(O)C=O)cc2)c2ccccc2n1 (centres unmarked) [Example I-40],IC50,[1],270 nM
"Cc1cc(COc2ccc(S(=O)(=O)N3CCSC(C)(C)[C@@H]3C(=O)NO)cc2)cc(C)n1 [compound 1, reference compound]",IC50,[2]; [8],10000 nM
same,IC50,[1]; [8],10 nM
same,IC50,[3],8000 nM
same,IC50,[4],20 nM
same,IC50,[5],80 nM
same,IC50,[6]; [9],200 nM
same,IC50,[7]; [8],20000 nM
Cc1ccc2nc(C)cc(COc3ccc(S(=O)(=O)CC(c4ccc(C)nc4)N(O)C=O)cc3)c2c1 (centres unmarked) [Example I-147],IC50,[1],4.3 nM
CCC(CC)C(=O)N1CCC(=CC(CS(=O)(=O)c2ccc(OCc3cc(C)nc4ccc(C)cc34)cc2)N(O)C=O)CC1 (centres unmarked) [Example I-173],IC50,[1],5 nM
"Cc1cc(COc2ccc(S(=O)(=O)CC(C=C3CCC(=NO)CC3)N(O)C=O)cc2)c2ccccc2n1 (centres unmarked) [Example I-6, N-Hydroxy-N-[1-(4-hydroxyiminocyclohexylidenemethyl)-2-{4-(2-methylquinolin-4-ylmethoxy)benzenesulfonyl}ethyl]formamide]",IC50,[2],45000 nM
same,IC50,[3],50000 nM
same,IC50,[4],3000 nM
same,IC50,[5],5000 nM
same,IC50,[6]; [9],15000 nM
same,IC50,[7],80000 nM
"C=C1CCC(C(CS(=O)(=O)c2ccc(OCc3cc(C)nc4ccccc34)cc2)N(O)C=O)CC1 (centres unmarked) [Example I-1, N-hydroxy-N-[1-(4-methylenecyclohexyl)-2-{4-(2-methylquinolin-4-ylmethoxy)benzenesulfonyl}ethyl]formamide]",IC50,[3],40000 nM
same,IC50,[4],2000 nM
same,IC50,[5],6000 nM
same,IC50,[6]; [9],7300 nM
same,IC50,[7],50000 nM
Cc1cc(COc2ccc(S(=O)(=O)CC(/C=C/C3(C)CCOCC3)N(O)C=O)cc2)c2ccccc2n1 (centres unmarked) [Example I-143],IC50,[1],3.3 nM
Cc1cccc(C(CS(=O)(=O)c2ccc(OCc3cc(C)nc4ccccc34)cc2)N(O)C=O)n1 (centres unmarked) [Example I-135],IC50,[1],4 nM
CCC(CC)C(=O)N1CCCC(=CC(CS(=O)(=O)c2ccc(OCc3cc(C)nc4ccccc34)cc2)N(O)C=O)CC1 (centres unmarked) [Example I-139],IC50,[1],8.2 nM
O=CN(O)C(CC1CCC(=O)CC1)CS(=O)(=O)c1ccc(OCc2ccc3ccccc3n2)cc1 (centres unmarked) [Example I-89],IC50,[1],820 nM
O=CN(O)C(CC1CCC2(CC1)OCCO2)CS(=O)(=O)c1ccc(OCc2ccc3ccccc3n2)cc1 (centres unmarked) [Example I-87],IC50,[1],5700 nM
CCN1CCCC(CC(CS(=O)(=O)c2ccc(OCc3cc(C)nc4ccccc34)cc2)N(O)C=O)C1 (centres unmarked) [Example I-158],IC50,[1],26 nM
Cc1ccc2nc(C)cc(COc3ccc(S(=O)(=O)CC([C@@H]4CSC(=O)N4C)N(O)C=O)cc3)c2c1 (some centres unmarked) [Example I-148],IC50,[1],13 nM
Cc1cc(COc2ccc(S(=O)(=O)CC(C3CCCN(CC(C)C)C3)N(O)C=O)cc2)c2ccccc2n1 (centres unmarked) [Example I-154],IC50,[1],31 nM
CCC(CC)CN1CCC(=CC(CS(=O)(=O)c2ccc(OCc3cc(C)nc4ccc(C)cc34)cc2)N(O)C=O)CC1 (centres unmarked) [Example I-174],IC50,[1],15 nM
Cc1cc(COc2ccc(S(=O)(=O)CC(C3CCC(=NO)CC3)N(O)C=O)cc2)c2ccccc2n1 (centres unmarked) [Example I-14],IC50,[3],23000 nM
same,IC50,[7],30000 nM

# From patent publication US7511144B2, “Reverse hydroxamic acid derivatives” (Kaken Pharmaceutical Co., Ltd., priority 2001, dated 2009)
